Test results: patent US12528815B2, “5-amino-8-(4-pyridyl)-[1,2,4]triazolo[4,3-c]pyrimidin-3-one compounds for use against cancer” (Nxera Pharma UK Limited, priority 2020, dated 2026)

Legend:
[1] = target: T1, human adenosine A1 receptor (Homo sapiens, UniProt P30542); test: Inhibition binding assay, human adenosine A1 receptor membranes, [3H]DPCPX; details: 1 nM [3H]DPCPX, 25° C., 1 h; IC50 converted to Ki with Cheng-Prusoff; read-out: A1 pKi (converted)
T1 construct: expressed in transfected cells; host or cells: HEK293 cells infected with BacMam (the same paragraph also labels the preparation CHO-hA1)
T1 sequence (P30542 1-326): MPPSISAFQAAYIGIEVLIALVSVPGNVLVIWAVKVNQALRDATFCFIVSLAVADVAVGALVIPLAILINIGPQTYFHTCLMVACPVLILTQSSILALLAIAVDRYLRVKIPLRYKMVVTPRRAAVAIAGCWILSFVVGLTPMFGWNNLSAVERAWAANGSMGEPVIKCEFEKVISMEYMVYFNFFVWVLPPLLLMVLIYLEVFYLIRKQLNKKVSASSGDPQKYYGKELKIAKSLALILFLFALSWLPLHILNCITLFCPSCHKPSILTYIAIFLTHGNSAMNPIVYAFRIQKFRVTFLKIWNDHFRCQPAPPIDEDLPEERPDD
Summary of the method: (§1)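 Membranes from BacMam-infected HEK293 cells (0.2 μg A2A, 1.4 μg A1) incubated 1 h at 25° C with test compound and 1 nM [3H]ZM241385 (A2A; 50 mM Tris-HCl pH 7.4) or [3H]DPCPX (A1; plus 100 mM NaCl, 10 mM MgCl2). Nonspecific: 1 μM CGS15943 or DPCPX. Filtration, scintillation; IC50 converted to Ki via Cheng-Prusoff.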

[2] = target: T2, human adenosine A2A receptor (Homo sapiens, UniProt P29274); test: Inhibition binding assay, human adenosine A2A receptor membranes, [3H]ZM241385; details: 1 nM [3H]ZM241385, HEK293-hA2A membranes, 25° C., 1 h; IC50 converted to Ki with Cheng-Prusoff; read-out: A2A pKi (converted)
T2 construct: expressed in transfected cells; host or cells: HEK293 cells infected with BacMam
Summary of the method: as §1

T2 sequence (P29274 whole entry): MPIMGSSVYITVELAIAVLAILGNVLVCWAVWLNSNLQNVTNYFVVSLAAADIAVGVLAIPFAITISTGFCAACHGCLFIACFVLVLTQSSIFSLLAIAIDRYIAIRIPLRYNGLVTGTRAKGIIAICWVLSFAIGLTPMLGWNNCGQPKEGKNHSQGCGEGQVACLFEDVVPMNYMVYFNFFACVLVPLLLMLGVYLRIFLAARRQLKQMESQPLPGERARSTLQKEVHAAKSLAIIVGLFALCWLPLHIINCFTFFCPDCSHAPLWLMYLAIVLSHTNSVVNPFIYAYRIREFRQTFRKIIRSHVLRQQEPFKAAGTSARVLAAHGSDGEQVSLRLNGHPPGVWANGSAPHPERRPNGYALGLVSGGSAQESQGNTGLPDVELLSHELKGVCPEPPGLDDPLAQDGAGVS

Row | Ki [1] | Ki [2] | Structure (SMILES)
1 | 0.501 µM | 0.00398 µM | Cc1cc(-c2c(-c3ccccc3)nc(N)n3c(=O)n(C4CCCN(C)C4)nc23)cc(C)n1 (stereo not shown) [Example 2-70, 5-amino-8-(2,6-dimethyl-4-pyridyl)-2-(1-methyl-3-piperidyl)-7-phenyl-[1,2,4]triazolo[4,3-c]pyrimidin-3-one]
2 | 0.631 µM | 0.0158 µM | Cc1cc(-c2c(-c3ccccc3)nc(N)n3c(=O)n(CCN4CCC(F)(F)CC4)nc23)cc(C)n1 [Example 2-101, 5-amino-2-[2-(4,4-difluoro-1-piperidyl)ethyl]-8-(2,6-dimethyl-4-pyridyl)-7-phenyl-[1,2,4]triazolo[4,3-c]pyrimidin-3-one]
3 | > 3.16 µM | 0.00631 µM | Cc1cc(-c2c(N3CCCCC3)nc(N)n3c(=O)n(CCC(F)(F)F)nc23)cc(C)n1 [Example 3-2, 5-amino-8-(2,6-dimethyl-4-pyridyl)-7-(1-piperidyl)-2-(3,3,3-trifluoropropyl)-[1,2,4]triazolo[4,3-c]pyrimidin-3-one]
4 | 0.0794 µM | 0.000794 µM | Cc1cc(-c2c(-c3ccc(F)cc3)nc(N)n3c(=O)n(CCC(F)(F)F)nc23)cc(Cl)n1 [Example 2-50, 5-amino-8-(2-chloro-6-methyl-4-pyridyl)-7-(4-fluorophenyl)-2-(3,3,3-trifluoropropyl)-[1,2,4]triazolo[4,3-c]pyrimidin-3-one]
5 | 0.316 µM | 0.00126 µM | Cc1cc(-c2c(-c3ccccc3)nc(N)n3c(=O)n(CC45CC(C4)C5)nc23)cc(CO)n1 [Example 2-63, 5-amino-2-(3-bicyclo[1.1.1]pentanylmethyl)-8-[2-(hydroxymethyl)-6-methyl-4-pyridyl]-7-phenyl-[1,2,4]triazolo[4,3-c]pyrimidin-3-one]
6 | 0.501 µM | 0.0398 µM | Cc1cc(-c2c(-c3ccc(F)cc3)nc(N)n3c(=O)n(C)nc23)cc(Cl)n1 [Example 2-49, 5-amino-8-(2-chloro-6-methyl-4-pyridyl)-7-(4-fluorophenyl)-2-methyl-[1,2,4]triazolo[4,3-c]pyrimidin-3-one]
7 | 0.501 µM | 0.00501 µM | COC(=O)CCn1nc2c(-c3cc(C)nc(C)c3)c(-c3ccccc3)nc(N)n2c1=O [Example 2-15, methyl 3-[5-amino-8-(2,6-dimethyl-4-pyridyl)-3-oxo-7-phenyl-[1,2,4]triazolo[4,3-c]pyrimidin-2-yl]propanoate]
8 | 0.316 µM | 0.000251 µM | Nc1nc(-c2ccccc2)c(-c2cc(Cl)nc(CO)c2)c2nn(CCC(F)(F)F)c(=O)n12 [Example 2-45, 5-amino-8-[2-chloro-6-(hydroxymethyl)-4-pyridyl]-7-phenyl-2-(3,3,3-trifluoropropyl)-[1,2,4]triazolo[4,3-c]pyrimidin-3-one]
9 | 1 µM | 0.1 µM | Cc1cc(-c2c(-c3ccccc3)nc(N)n3c(=O)n(CCO)nc23)cc(C)n1 [Example 2-7, 5-amino-8-(2,6-dimethyl-4-pyridyl)-2-(2-hydroxyethyl)-7-phenyl-[1,2,4]triazolo[4,3-c]pyrimidin-3-one]
10 | 0.0316 µM | 0.000631 µM | CCC1(C)CC1Cn1nc2c(-c3cc(C)nc(C)c3)c(-c3ccccc3)nc(N)n2c1=O (stereo not shown) [Example 2-27, 5-amino-8-(2,6-dimethyl-4-pyridyl)-2-[(2-ethyl-2-methyl-cyclopropyl)methyl]-7-phenyl-[1,2,4]triazolo[4,3-c]pyrimidin-3-one]
11 | > 3.98 µM | 0.0316 µM | CC#Cc1nc(N)n2c(=O)n(CCC(F)(F)F)nc2c1-c1cc(C)nc(C)c1 [Example 3-7, 5-amino-8-(2,6-dimethyl-4-pyridyl)-7-prop-1-ynyl-2-(3,3,3-trifluoropropyl)-[1,2,4]triazolo[4,3-c]pyrimidin-3-one]
12 | > 3.16 µM | 0.126 µM | Cc1cc(-c2c(-c3ccccc3)nc(N)n3c(=O)n(CCN4CCN(C)CC4)nc23)cc(C)n1 [Example 2-102, 5-amino-8-(2,6-dimethyl-4-pyridyl)-2-[2-(4-methylpiperazin-1-yl)ethyl]-7-phenyl-[1,2,4]triazolo[4,3-c]pyrimidin-3-one]
13 | 0.794 µM | 0.0316 µM | Cc1cc(-c2c(-c3ccccc3)nc(N)n3c(=O)n(CCN4CCOCC4)nc23)cc(C)n1 [Example 2-99, 5-amino-8-(2,6-dimethyl-4-pyridyl)-2-(2-morpholinoethyl)-7-phenyl-[1,2,4]triazolo[4,3-c]pyrimidin-3-one]

The next lines start with the molecule.

Row | Structure (SMILES) | Ki [1] | Ki [2]
14 | Cc1ccc(Cn2nc3c(-c4cc(C)nc(CO)c4)c(-c4ccc(F)cc4)nc(N)n3c2=O)nc1 [Example 1-61, 5-amino-7-(4-fluorophenyl)-8-[2-(hydroxymethyl)-6-methyl-4-pyridyl]-2-[(5-methyl-2-pyridyl)methyl]-[1,2,4]triazolo[4,3-c]pyrimidin-3-one] | > 1.58 µM | 0.00158 µM
15 | Cc1cc(-c2c(-c3ccccc3)nc(N)n3c(=O)n(C(C)Cc4ccccc4)nc23)cc(C)n1 (stereo not shown) [Example 1-81, 5-amino-8-(2,6-dimethyl-4-pyridyl)-2-(1-methyl-2-phenyl-ethyl)-7-phenyl-[1,2,4]triazolo[4,3-c]pyrimidin-3-one] | 0.631 µM | 0.0251 µM
16 | Cc1cc(-c2c(-c3ccccc3)nc(N)n3c(=O)n(CCc4ccccc4)nc23)cc(C(F)(F)F)n1 [Example 1-88, 5-amino-8-[2-methyl-6-(trifluoromethyl)-4-pyridyl]-7-phenyl-2-(2-phenylethyl)-[1,2,4]triazolo[4,3-c]pyrimidin-3-one] | 0.1 µM | 0.0126 µM
17 | Cc1cc(-c2c(-c3ccccc3)nc(N)n3c(=O)n(Cc4ccc(O)nn4)nc23)cc(C)n1 [Example 1-37, 5-amino-8-(2,6-dimethyl-4-pyridyl)-2-[(6-hydroxypyridazin-3-yl)methyl]-7-phenyl-[1,2,4]triazolo[4,3-c]pyrimidin-3-one] | > 3.16 µM | 0.0631 µM
18 | Cc1cc(-c2c(-c3ccccc3)nc(N)n3c(=O)n(Cc4ccc(F)c(=O)[nH]4)nc23)cc(C)n1 [Example 1-8, 5-amino-8-(2,6-dimethyl-4-pyridyl)-2-[(5-fluoro-6-oxo-1H-pyridin-2-yl)methyl]-7-phenyl-[1,2,4]triazolo[4,3-c]pyrimidin-3-one] | 0.316 µM | 0.0251 µM
19 | COc1ncccc1Cn1nc2c(-c3cc(C)nc(C)c3)c(-c3ccccc3)nc(N)n2c1=O [Example 1-28, 5-amino-8-(2,6-dimethyl-4-pyridyl)-2-[(2-methoxy-3-pyridyl)methyl]-7-phenyl-[1,2,4]triazolo[4,3-c]pyrimidin-3-one] | 0.0631 µM | 0.0002 µM
20 | Cc1cc(-c2c(-c3ccccc3)nc(N)n3c(=O)n(C(C)c4cccnc4)nc23)cc(C)n1 (stereo not shown) [Example 1-27, 5-amino-8-(2,6-dimethyl-4-pyridyl)-7-phenyl-2-[1-(3-pyridyl)ethyl]-[1,2,4]triazolo[4,3-c]pyrimidin-3-one] | 0.251 µM | 0.01 µM
21 | CCC(c1ccc(F)cn1)n1nc2c(-c3cc(C)nc(C)c3)c(-c3ccccc3)nc(N)n2c1=O (racemic) [Example 1-38, 5-amino-8-(2,6-dimethyl-4-pyridyl)-2-[1-(5-fluoro-2-pyridyl)propyl]-7-phenyl-[1,2,4]triazolo[4,3-c]pyrimidin-3-one] | 1 µM | 0.1 µM
22 | COc1cnc(Cn2nc3c(-c4cc(C)nc(CO)c4)c(-c4ccccc4)nc(N)n3c2=O)c(F)c1 [Example 1-47, 5-amino-2-[(3-fluoro-5-methoxy-2-pyridyl)methyl]-8-[2-(hydroxymethyl)-6-methyl-4-pyridyl]-7-phenyl-[1,2,4]triazolo[4,3-c]pyrimidin-3-one] | 0.501 µM | 0.00794 µM
23 | Cc1cc(-c2c(-c3ccccc3)nc(N)n3c(=O)n(C(CC4COCCN4)c4ccccc4)nc23)cc(C)n1 (stereo not shown) [Example 1-103, 5-amino-8-(2,6-dimethyl-4-pyridyl)-2-(2-morpholin-3-yl-1-phenyl-ethyl)-7-phenyl-[1,2,4]triazolo[4,3-c]pyrimidin-3-one] | 1 µM | 0.0158 µM
24 | Cc1cc(-c2c(-c3ccccc3)nc(N)n3c(=O)n(C4CSCc5ccccc54)nc23)cc(C)n1 (stereo not shown) [Example 1-13, 5-amino-8-(2,6-dimethyl-4-pyridyl)-2-isothiochroman-4-yl-7-phenyl-[1,2,4]triazolo[4,3-c]pyrimidin-3-one] | 0.158 µM | 0.00126 µM
25 | Cc1cc(N2CCC(NCCn3nc4c(-c5cc(C)nc(C)c5)c(-c5ccccc5)nc(N)n4c3=O)CC2)[nH]n1 [Example 1-95, 5-amino-8-(2,6-dimethyl-4-pyridyl)-2-[2-[[1-(3-methyl-1H-pyrazol-5-yl)-4-piperidyl]amino]ethyl]-7-phenyl-[1,2,4]triazolo[4,3-c]pyrimidin-3-one] | > 2 µM | 0.316 µM
26 | Cc1cc(-c2c(-c3ccccc3)nc(N)n3c(=O)n(CC4CCCS(=O)(=O)C4)nc23)cc(C)n1 (single isomer, unassigned) [Example 2-89-iso-1, 5-amino-8-(2,6-dimethyl-4-pyridyl)-2-[(1,1-dioxothian-3-yl)methyl]-7-phenyl-[1,2,4]triazolo[4,3-c]pyrimidin-3-one] | 0.398 µM | 0.01 µM
